From PubChem BioAssay AID256 (DTP/NCI, 2004)
Several values for one entry are separate records, joined by “and”; a condition that tells them apart may be missing. Identical values can stand only once. Toxic doses and inconclusive results are not listed. Rule for the calls: active = survival T/C of 150% or more; inactive = T/C below 125% in these data.

Test system: CD2F1 mice, L1210 leukemia ip, survival T/C
Test: NCI In Vivo Anticancer Drug Screen. Data for tumor model L1210 Leukemia (intraperitoneal) in CD2F1 (CDF1) mice
Settings: higher = longer survival
Summary of the method: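 Each value reflects a quotient of treated over vehicle control outcomes in mice with a transplanted tumor.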

[1] = endpoint: mean survival time, dose: 100.0 mg/kg/injection, schedule: Q01DX001 (ip), vehicle: Klucel (hydroxypropylcellulose) (HPC)
[2] = endpoint: mean survival time, dose: 100.0 mg/kg/injection, schedule: Q01DX009 (ip), vehicle: saline with Tween-80
[3] = endpoint: mean survival time, dose: 200.0 mg/kg/injection, schedule: Q01DX009 (ip), vehicle: saline with Tween-80
[4] = endpoint: mean survival time, dose: 400.0 mg/kg/injection, schedule: Q01DX009 (ip), vehicle: saline with Tween-80
[5] = endpoint: mean survival time, dose: 100.0 mg/kg/injection, schedule: Q04DX003 (ip), vehicle: saline with Tween-80
[6] = endpoint: mean survival time, dose: 200.0 mg/kg/injection, schedule: Q04DX003 (ip), vehicle: saline with Tween-80
[7] = endpoint: mean survival time, dose: 400.0 mg/kg/injection, schedule: Q04DX003 (ip), vehicle: saline with Tween-80
[8] = endpoint: mean survival time, dose: 100.0 mg/kg/injection, schedule: Q04DX002 (ip), vehicle: saline with Tween-80
[9] = endpoint: mean survival time, dose: 200.0 mg/kg/injection, schedule: Q04DX002 (ip), vehicle: saline with Tween-80
[10] = endpoint: mean survival time, dose: 100.0 mg/kg/injection, schedule: Q01DX001 (ip), vehicle: saline with Tween-80
[11] = endpoint: mean survival time, dose: 200.0 mg/kg/injection, schedule: Q01DX001 (ip), vehicle: saline with Tween-80
[12] = endpoint: mean survival time, dose: 400.0 mg/kg/injection, schedule: Q01DX001 (ip), vehicle: saline with Tween-80
[13] = endpoint: mean survival time, dose: 50.0 mg/kg/injection, schedule: Q01DX009 (ip), vehicle: saline with Tween-80

Measured: T/C

CC(C)C1OC(C(F)(F)F)(C(F)(F)Cl)CC1=O (centres undefined)
inactive: [1] 86 % of control | endpoint: mean survival time, dose: 200.0 mg/kg/injection, schedule: Q01DX001 (ip), vehicle: Klucel (hydroxypropylcellulose) (HPC) 97 % of control | endpoint: mean survival time, dose: 400.0 mg/kg/injection, schedule: Q01DX001 (ip), vehicle: Klucel (hydroxypropylcellulose) (HPC) 98 % of control

Nc1ccc(N=Nc2ccccc2)c(N)n1
inactive: [2] 98 % of control | [3] 98 % of control | [4] 100 % of control

O=C(CNC(=O)OCc1ccccc1)NCC(=O)NC(CO)C(=O)O (centres undefined)
inactive: [5] 95 % of control | [6] 104 % of control | [7] 96 % of control

C[N+](C)(C)c1ncnc2c1ncn2C1CCCO1 (centres undefined)
inactive: endpoint: mean survival time, dose: 12.5 mg/kg/injection, schedule: Q01DX009 (ip), vehicle: saline 93 % of control | endpoint: mean survival time, dose: 25.0 mg/kg/injection, schedule: Q01DX009 (ip), vehicle: saline 98 % of control | endpoint: mean survival time, dose: 50.0 mg/kg/injection, schedule: Q01DX009 (ip), vehicle: saline 112 % of control | endpoint: mean survival time, dose: 100.0 mg/kg/injection, schedule: Q01DX009 (ip), vehicle: saline 101 % of control

C(=N\C(/N=C/c1ccccc1)c1ccccc1)/c1ccccc1
inactive: endpoint: mean survival time, dose: 100.0 mg/kg/injection, schedule: Q01DX001 (ip), vehicle: saline 100 % of control | endpoint: mean survival time, dose: 200.0 mg/kg/injection, schedule: Q01DX001 (ip), vehicle: saline 103 % of control | endpoint: mean survival time, dose: 400.0 mg/kg/injection, schedule: Q01DX001 (ip), vehicle: saline 106 % of control

NC(=S)N/N=C1\CC2CC1C1C=CCC21 (centres undefined)
inactive: [8] 111 % of control | [9] 98 % of control

Nc1ncnc2nc(SCc3ccccc3)[nH]c12
inactive: endpoint: mean survival time, dose: 12.5 mg/kg/injection, schedule: Q01DX009 (ip), vehicle: Klucel (hydroxypropylcellulose) (HPC) 112 % of control | endpoint: mean survival time, dose: 25.0 mg/kg/injection, schedule: Q01DX009 (ip), vehicle: Klucel (hydroxypropylcellulose) (HPC) 104 % of control | endpoint: mean survival time, dose: 50.0 mg/kg/injection, schedule: Q01DX009 (ip), vehicle: Klucel (hydroxypropylcellulose) (HPC) 100 % of control | [1] 90 % of control

CC(=O)N(c1ccccc1)C1CCC2(C)C(=CCC3C2CCC2(C)C(C(C)CCCC(C)C)CCC32)C1 (centres undefined)
inactive: endpoint: mean survival time, dose: 100.0 mg/kg/injection, schedule: Q01DX009 (sc), vehicle: steriod suspending solution 96 % of control | endpoint: mean survival time, dose: 100.0 mg/kg/injection, schedule: Q04DX003 (sc), vehicle: steriod suspending solution 95 % of control | endpoint: mean survival time, dose: 200.0 mg/kg/injection, schedule: Q01DX009 (sc), vehicle: steriod suspending solution 102 % of control | endpoint: mean survival time, dose: 200.0 mg/kg/injection, schedule: Q04DX003 (sc), vehicle: steriod suspending solution 93 % of control | endpoint: mean survival time, dose: 400.0 mg/kg/injection, schedule: Q01DX009 (sc), vehicle: steriod suspending solution 102 % of control | endpoint: mean survival time, dose: 400.0 mg/kg/injection, schedule: Q04DX003 (sc), vehicle: steriod suspending solution 96 % of control

Cc1c(C)c(OC(=O)c2ccccc2)c(Br)c(C)c1OC(=O)c1ccccc1
inactive: [10] 91 % of control | [2] 100 % of control | [11] 100 % of control | [3] 100 % of control | [12] 100 % of control | [4] 100 % of control

CC1(C)N=C(N)N=C(N)N1c1ccc(OCCCCNC(=O)c2ccc(S(=O)(=O)F)cc2)c(Cl)c1
inactive: endpoint: mean survival time, dose: 12.5 mg/kg/injection, schedule: Q01DX009 (ip), vehicle: saline with Tween-80 110 % of control | endpoint: mean survival time, dose: 25.0 mg/kg/injection, schedule: Q01DX009 (ip), vehicle: saline with Tween-80 110 % of control | [13] 119 % of control and 109 % of control | endpoint: mean survival time, dose: 50.0 mg/kg/injection, schedule: Q04DX002 (ip), vehicle: saline with Tween-80 104 % of control | [8] 104 % of control | [9] 104 % of control

CCOc1ccccc1NC(=O)C(Br)C(Br)C(=O)O (centres undefined)
inactive: [10] 110 % of control | [11] 112 % of control | [12] 108 % of control

O=c1[nH]cnc2[nH]ncc12
inactive: endpoint: mean survival time, dose: 8.4 mg/kg/injection, schedule: Q04DX003 (ip), vehicle: saline with Tween-80 99 % of control | endpoint: mean survival time, dose: 14.0 mg/kg/injection, schedule: Q04DX003 (ip), vehicle: saline with Tween-80 103 % of control | endpoint: mean survival time, dose: 23.4 mg/kg/injection, schedule: Q04DX003 (ip), vehicle: saline with Tween-80 96 % of control | endpoint: mean survival time, dose: 39.0 mg/kg/injection, schedule: Q04DX003 (ip), vehicle: saline with Tween-80 101 % of control and 111 % of control | [13] 104 % of control | endpoint: mean survival time, dose: 60.0 mg/kg/injection, schedule: Q01DX006 (ip), vehicle: saline with Tween-80 97 % of control | endpoint: mean survival time, dose: 65.0 mg/kg/injection, schedule: Q04DX003 (ip), vehicle: saline with Tween-80 99 % of control and 104 % of control | [2] 106 % of control | endpoint: mean survival time, dose: 108.0 mg/kg/injection, schedule: Q04DX003 (ip), vehicle: saline with Tween-80 108 % of control and 111 % of control | endpoint: mean survival time, dose: 120.0 mg/kg/injection, schedule: Q01DX006 (ip), vehicle: saline with Tween-80 107 % of control | endpoint: mean survival time, dose: 180.0 mg/kg/injection, schedule: Q04DX003 (ip), vehicle: saline with Tween-80 106 % of control and 109 % of control | [3] 107 % of control | endpoint: mean survival time, dose: 300.0 mg/kg/injection, schedule: Q04DX003 (ip), vehicle: saline with Tween-80 104 % of control | endpoint: mean survival time, dose: 500.0 mg/kg/injection, schedule: Q04DX003 (ip), vehicle: saline with Tween-80 104 % of control | endpoint: mean survival time, dose: 833.0 mg/kg/injection, schedule: Q04DX003 (ip), vehicle: saline with Tween-80 97 % of control | endpoint: median survival time, dose: 12.5 mg/kg/injection, schedule: Q01DX009 (ip), vehicle: suspension in saline 101 % of control | endpoint: median survival time, dose: 25.0 mg/kg/injection, schedule: Q01DX009 (ip), vehicle: suspension in saline 103 % of control | endpoint: median survival time, dose: 50.0 mg/kg/injection, schedule: Q01DX009 (ip), vehicle: suspension in saline 100 % of control | endpoint: median survival time, dose: 100.0 mg/kg/injection, schedule: Q01DX009 (ip), vehicle: suspension in saline 101 % of control | endpoint: median survival time, dose: 200.0 mg/kg/injection, schedule: Q01DX009 (ip), vehicle: suspension in saline 107 % of control

O.[Co].[NH2-].[NH2-].[NH2-].[NH2-].[NH2-]
inactive: endpoint: mean survival time, dose: 25.0 mg/kg/injection, schedule: Q04DX002 (ip), vehicle: saline with Tween-80 93 % of control | [8] 90 % of control | endpoint: mean survival time, dose: 100.0 mg/kg/injection, schedule: Q04DX002 (ip), vehicle: saline 98 % of control

O=c1n(-c2ccccc2)c(=O)n2n1C1C=CC2C2CC2/C=C\1 (centres undefined)
inactive: endpoint: median survival time, dose: 50.0 mg/kg/injection, schedule: Q04DX002 (ip), vehicle: saline with Tween-80 112 % of control | endpoint: median survival time, dose: 100.0 mg/kg/injection, schedule: Q04DX002 (ip), vehicle: saline with Tween-80 112 % of control | endpoint: median survival time, dose: 200.0 mg/kg/injection, schedule: Q04DX002 (ip), vehicle: saline with Tween-80 87 % of control

CN(Cc1cnc2nc(N)nc(N)c2n1)c1ccc(C(=O)NC(CCC(=O)OC(C)(C)C)C(=O)OC(C)(C)C)cc1 (centres undefined)
inactive: endpoint: mean survival time, dose: 1.56 mg/kg/injection, schedule: Q01DX009 (ip), vehicle: saline with Tween-80 112 % of control | endpoint: mean survival time, dose: 3.12 mg/kg/injection, schedule: Q01DX009 (ip), vehicle: saline with Tween-80 121 % of control | endpoint: mean survival time, dose: 4.5 mg/kg/injection, schedule: Q01DX009 (ip), vehicle: saline with Tween-80 111 % of control

C[n+]1ccn(C(CC(=O)O)C(=O)O)c1 (centres undefined)
inactive: endpoint: mean survival time, dose: 100.0 mg/kg/injection, schedule: Q04DX003 (ip), vehicle: saline 101 % of control | endpoint: mean survival time, dose: 200.0 mg/kg/injection, schedule: Q04DX003 (ip), vehicle: saline 103 % of control | endpoint: mean survival time, dose: 400.0 mg/kg/injection, schedule: Q04DX003 (ip), vehicle: saline 106 % of control

CCNC(=S)N(Cc1ccccc1)Cc1ccccc1
inactive: endpoint: mean survival time, dose: 50.0 mg/kg/injection, schedule: Q04DX003 (ip), vehicle: saline with Tween-80 103 % of control | [5] 89 % of control and 98 % of control | [6] 100 % of control | [7] 87 % of control

c1ccc2c[n+](CCCCCCCCCC[n+]3ccc4ccccc4c3)ccc2c1
inactive: endpoint: mean survival time, dose: 8.0 mg/kg/injection, schedule: Q01DX001 (ip), vehicle: saline 88 % of control | endpoint: mean survival time, dose: 32.0 mg/kg/injection, schedule: Q01DX001 (ip), vehicle: saline 88 % of control

BrCC[n+]1ccc(-c2cc[n+](CCBr)cc2)cc1
inactive: endpoint: mean survival time, dose: 10.0 mg/kg/injection, schedule: Q01DX001 (ip), vehicle: Klucel (hydroxypropylcellulose) (HPC) 110 % of control | endpoint: mean survival time, dose: 20.0 mg/kg/injection, schedule: Q01DX001 (ip), vehicle: Klucel (hydroxypropylcellulose) (HPC) 93 % of control | endpoint: mean survival time, dose: 40.0 mg/kg/injection, schedule: Q01DX001 (ip), vehicle: Klucel (hydroxypropylcellulose) (HPC) 98 % of control
